# Where “and” joins values, the source holds several entries; their conditions need not be identical. Identical values can stand only once. Entries after “also recorded” stand apart in the source; their conditions may differ.
# Assays:
# [1] = Pharmacokinetics of SNF472 administered as a s.c. bolus; format: in vivo, Wistar rats; conditions: rat
# Procedure: (§1) Due to the limitations in obtaining many sequential blood samples from rats, blood samples were only acquired from each animal at three of the nine time-points. Consequently, the area under the curves (AUCs) could not be determined for individual animals and mean AUCs were therefore used to assess dose linearity.
# (§2) Following sampling, blood was collected into K3EDTA anticoagulant tubes, centrifuged at 3,500 rpm for 10 min at 4 °C and stored at -80°C pending quantification via UPLC®-MS using the method described by Tur et al.
# [2] = test system: cardiovascular calcification in adenine-induced uremic rats; assay: Inhibition of calcification in a rat model of uremia (adenine + α-calcidol); format: in vivo, Wistar rats
# Procedure: as §2
# All rats were treated daily with adenine (600 mg/kg, suspended in 1% carboxymethyl cellulose, administered orally) for the first 10 days to induce uremia and α-calcidol (300 ng/kg in olive oil, administered orally) three times a week from days 11 to 19 to accelerate and homogenize the development of cardiovascular calcification. On day 19, all surviving animals were sacrificed and blood and tissue samples collected. Blood was obtained via heart puncture in anesthetized animals immediately before sacrifice.
# Lyophilized organs were digested using a 1:1 HNO3:HClO4 mixture in a dry bath incubator for 2–4 h at 180°C and subsequently diluted with MilliQ™ water to a final volume of 10 ml. Calcium and phosphorus contents in serum, heart and aorta were quantified via inductively coupled plasma optical emission spectrometry (ICP-OES) (Perkin-Elmer SL, Optima 5300DV spectrometer)[26].
# Alkaline phosphatase (ALP) activity (ref. OSR6103), and creatinine (OSR6178) and urea (ref. OSR6134) levels were determined in serum using the Beckman Coulter assay kit (Brea, CA, USA).
# [3] = Pharmacokinetics of SNF472 administered as an i.v. bolus; format: in vivo, Wistar rats; conditions: for C0: rat plasma phytate, extrapolated concentration at time 0
# Procedure: Blood was collected at 5, 15, 60 and 120 min.
# as §1, §2
# [4] = test system: vitamin D3-induced cardiovascular calcification; assay: Prevention of calcification induced by vitamin D; format: in vivo, Sprague Dawley rats
# Procedure: Experiments were performed with 20 male Crl:OF Sprague Dawley rats weighing ± 350 g (Charles River Laboratories International, Inc. L’Arbresle, France). Animals were divided into four groups. […] Calcification was induced by 5 consecutive daily oral administrations of 75 kIU/kg vitamin D3 (Fort Dodge, Girona, Spain), starting on day 3 of treatment. Five sham-treated animals with no calcification induction served as controls. Rats were sacrificed 14 days after induction of calcification, and organs collected. Blood was obtained via heart puncture in anesthetized animals immediately before sacrifice.
# (§3) Aorta and heart were removed at sacrifice, lyophilized for 24 h and weighed. Lyophilized organs were digested using a 1:1 HNO3:HClO4 mixture in a dry bath incubator for 2–4 h at 180°C and subsequently diluted with MilliQ™ water to a final volume of 10 ml. Calcium and phosphorus contents in serum, heart and aorta were quantified via inductively coupled plasma optical emission spectrometry (ICP-OES) (Perkin-Elmer SL, Optima 5300DV spectrometer)[26].
# [5] = Pharmacokinetics of SNF472 via 4 h i.v. infusion in control rats; format: in vivo, Wistar rats; conditions: for AUC(0→t) / Cmax: Day 1 (control) rats
# Procedure: (§4) The experiment was performed based on a model described by Terai and co-workers[27]. Uremia was induced in 10 male Wistar rats weighing ± 275 g via 10 daily oral administrations of 600 mg/kg adenine (days 1–10). Two further oral doses of 300 ng/kg α-calcidol were administered on days 11 and 13.
# as §1, §2
# [6] = Pharmacokinetics of SNF472 via 4 h i.v. infusion in adenine-induced uremic rats; format: in vivo, Wistar rats; conditions: for AUC(0→t) / Cmax: Day 13 (uremic) rats
# Procedure: as §4, §1, §2
# [7] = test system: vitamin D3-induced cardiovascular calcification (progression); assay: Inhibition of calcification progression induced by vitamin D; format: in vivo, Sprague Dawley rats; conditions: 10 and 60 mg/kg s.c. daily
# Procedure: Experiments were performed with 48 male Crl:OF Sprague Dawley rats weighing ± 250 g (Charles River Laboratories International, Inc. L’Arbresle, France) divided into 6 groups. Calcification was induced by 3 consecutive daily s.c. administrations of 100 kIU/kg vitamin D3 (Fort Dodge, Girona, Spain). Four groups were used as controls to evaluate calcification progression throughout the 14 days of study. The animals received daily s.c. injections of vehicle (NaCl 0.9%), starting 5 days after calcification induction. […] Group 1 animals were sacrificed on day 5 to evaluate calcification. Groups 2 and 3 were sacrificed on days 9 and 12, respectively, to follow the progression of calcification in control animals. Groups 4, 5 and 6 were sacrificed on day 14. Blood was obtained via heart puncture in anesthetized animals immediately before sacrifice.
# as §3
# [8] = 50 mg/kg 4 h i.v. infusion daily, uremic rats
# [9] = single i.v. bolus 10 mg/kg, rat
# [10] = 1 mg/kg i.v. every other day (e.o.d.)
# [11] = 4 h i.v. infusion 10 mg/kg, uremic rats
smiles,measurement,setting,value
"O=P([O-])(O)OC1C(OP(=O)([O-])O)C(OP(=O)([O-])O)C(OP(=O)([O-])O)C(OP(=O)([O-])O)C1OP(=O)([O-])O.[Na+].[Na+].[Na+].[Na+].[Na+].[Na+] (centres unmarked) [SNF472, hexasodium salt of myo-inositol hexaphosphate]",AUC(0→t),[1]; single s.c. bolus 10 mg/kg,1633 ng·h/mL
same,Cl/F,[1]; single s.c. bolus 10 mg/kg,3.67 mL/min/kg
same,Cmax,[1]; single s.c. bolus 10 mg/kg,4876 ng/mL
same,MRT (0→∞),[1]; single s.c. bolus 10 mg/kg,28.2 min
same,AUC(0→t),[1]; single s.c. bolus 30 mg/kg,32646 ng·h/mL
same,Cl/F,[1]; single s.c. bolus 30 mg/kg,4.5 mL/min/kg
same,Cmax,[1]; single s.c. bolus 30 mg/kg,61014 ng/mL
same,MRT (0→∞),[1]; single s.c. bolus 30 mg/kg,28.8 min
same,AUC(0→t),[1]; single s.c. bolus 100 mg/kg,139603 ng·h/mL
same,Cl/F,[1]; single s.c. bolus 100 mg/kg,3.5 mL/min/kg
same,Cmax,[1]; single s.c. bolus 100 mg/kg,263264 ng/mL
same,MRT (0→∞),[1]; single s.c. bolus 100 mg/kg,29.4 min
same,mortality (animals died),"[2]; 50 mg/kg 4 h i.v. infusion daily, 12 uremic rats per group, 4 died in control group",7 animals
same,inhibition of development of calcification in aorta,[2]; [8],up to 80%
same,mortality vs control group,[2]; [8],no significant differences
same,serum creatinine vs control,[2]; [8],No significant differences
same,serum urea vs control,[2]; [8],No significant differences
same,circulating (serum) phosphorus,"[2]; 50 mg/kg 4 h i.v. infusion daily, uremic rats, control 17.6 mg/dL, not significant",19.9 mg/dL
same,mean serum ALP activity,"[2]; 50 mg/kg 4 h i.v. infusion daily, uremic rats, control 295 U/L, not significant",725 U/L
same,median heart calcium content,"[2]; 50 mg/kg 4 h i.v. infusion daily, uremic rats, control median 1.6 mg/g",0.2 mg/g
same,median aorta calcium content,"[2]; 50 mg/kg 4 h i.v. infusion daily, uremic rats, control median 65.0 mg/g",12.8 mg/g
same,reduction in serum calcium levels,"[2]; 50 mg/kg 4 h i.v. infusion daily, uremic rats, significant vs control",17%
same,"signs of hypocalcemia (dyspnea, muscle spasms, convulsions)","[2]; 50 mg/kg 4 h i.v. infusion, uremic rats",no signs of hypocalcemia
same,circulating phytate levels,"[2]; non-uremic animals (day 0), end of 4 h i.v. infusion 50 mg/kg","~ 150,000 ng/mL"
same,decrease in circulating phytate,"[2]; uremic animals, during and after 4 h of SNF472 infusion",90%
same,AUC(0→t),"[3]; single i.v. bolus 1 mg/kg, rat",3491 ng·h/mL
same,Cl,"[3]; single i.v. bolus 1 mg/kg, rat",4.83 mL/min/kg
same,MRT (0→∞),"[3]; single i.v. bolus 1 mg/kg, rat",99 min
same,C0,[3]; single i.v. bolus 1 mg/kg,36775 ng/mL
same,AUC(0→t),"[3]; single i.v. bolus 5 mg/kg, rat",19234 ng·h/mL
same,MRT (0→∞),"[3]; single i.v. bolus 5 mg/kg, rat",19.8 min
same,C0,[3]; single i.v. bolus 5 mg/kg,84561 ng/mL
same,AUC(0→t),[3]; [9],38752 ng·h/mL
same,MRT (0→∞),[3]; [9],11.4 min
same,C0,[3]; single i.v. bolus 10 mg/kg,156750 ng/mL
same,inhibition of aorta calcium vs vehicle,[4]; 1 mg/kg i.v. daily,60%
same,inhibition of heart calcium vs vehicle,[4]; 1 mg/kg i.v. daily,74% and 74.4%
same,serum phosphorus,"[4]; 1 mg/kg i.v. daily, control 14.75 mg/dL, significantly increased",18.96 mg/dL
same,mean heart calcium content,"[4]; 1 mg/kg i.v. daily, vitamin D3 75 kIU/kg p.o. x5, vehicle 3.35 mg/g",1.06 mg/g
same,mean aortic calcium content,"[4]; 1 mg/kg i.v. daily, vitamin D3 75 kIU/kg p.o. x5, vehicle 91.1 mg/g",36.8 mg/g
same,serum calcium,"[4]; 1 mg/kg i.v. daily, vs sham (8.72 mg/dL) and vitamin D control (10.50 mg/dL)",statistically significant higher levels than sham and control groups
same,inhibition of aorta calcium vs vehicle,[4]; [10],56.2%
same,inhibition of heart calcium vs vehicle,[4]; [10],70.4%
same,inhibition of CVC in non-uremic rats,"[4]; non-uremic rats, vitamin D3 model",60–70%
same,AUC(0→t),[5]; 4 h i.v. infusion 10 mg/kg,16027 ng·h/mL
same,Cmax,"[5]; 4 h i.v. infusion 10 mg/kg, maximum at 240 min",5548 ng/mL
same,steady state during the infusion period,"[5]; 4 h i.v. infusion 10 mg/kg, control rats",steady state was not achieved
same,AUC(0→t),[5]; 4 h i.v. infusion 50 mg/kg,145212 ng·h/mL
same,Cmax,[5]; 4 h i.v. infusion 50 mg/kg,45141 ng/mL
same,time at which steady state was reached,"[5]; 4 h i.v. infusion 50 mg/kg, control rats",60 min
same,AUC(0→t),[6]; 4 h i.v. infusion 10 mg/kg,3877 ng·h/mL
same,Cmax,"[6]; 4 h i.v. infusion 10 mg/kg, level at 240 min",1877 ng/mL
same,time at which low-level steady state was observed,[6]; [11],60 min
same,time at which maximum levels were reached,[6]; [11],≤ 30 min
same,AUC(0→t),[6]; 4 h i.v. infusion 50 mg/kg,51665 ng·h/mL
same,Cmax,[6]; 4 h i.v. infusion 50 mg/kg,16218 ng/mL
same,serum calcium levels,[7],not significantly affected
same,serum phosphorus levels on day 14 vs control,[7],No differences
same,progression of cardiac calcification,[7]; started 5 days after calcification induction,completely blocked; also recorded: completely inhibited further progression

# Reference: paper PMC5942814 (PLoS ONE, 2018)
